# Like-named read-outs stand apart in the source and are kept apart here.
# Tests used:
# [1] = system: Streptococcus pyogenes C203; assay: MIC, standard agar-dilution assay, Streptococcus pyogenes C203; type: cell-based
# [2] = system: Pasteurella multocida 60A; assay: MIC, broth-dilution microtiter test, Pasteurella multocida 60A; type: cell-based; conditions: Pasteurella multocida 60A, avian isolate, broth-dilution microtiter
# Excerpt: (§1) The MIC's in Table X were obtained using conventional broth-dilution microtiter tests.
# [3] = system: Staphylococcus epidermidis EPI1; assay: MIC, standard agar-dilution assay, Staphylococcus epidermidis EPI1; type: cell-based
# [4] = system: Haemophilus influenzae R252; assay: MIC, standard agar-dilution assay, Haemophilus influenzae R252; type: cell-based; conditions: Haemophilus influenzae R252, ampicillin-resistant strain
# [5] = system: Pasteurella multocida 17E; assay: MIC, broth-dilution microtiter test, Pasteurella multocida 17E; type: cell-based; conditions: Pasteurella multocida 17E, bovine isolate, broth-dilution microtiter
# Excerpt: as §1
# [6] = system: Streptococcus pneumoniae Park I; assay: microbe, parasite or virus in culture; type: cell-based
# [7] = system: Staphylococcus epidermidis EPI2; assay: MIC, standard agar-dilution assay, Staphylococcus epidermidis EPI2; type: cell-based
# [8] = system: Staphylococcus aureus X1.1; assay: MIC, standard agar-dilution assay, Staphylococcus aureus X1.1; type: cell-based
# [9] = system: Staphylococcus aureus V41; assay: MIC, standard agar-dilution assay, Staphylococcus aureus V41; type: cell-based
# Streptococcus Group 9960 = assay: MIC, standard agar-dilution assay, Streptococcus Group 9960; type: cell-based
# Streptococcus bovis 80 = assay: MIC, broth-dilution microtiter test, Streptococcus bovis 80; type: cell-based
# Excerpt: as §1
# Mycoplasma gallisepticum = assay: MIC, broth-dilution microtiter test, Mycoplasma gallisepticum; type: cell-based
# Excerpt: as §1
# [10] = system: Pasteurella hemolytica 22C; assay: MIC, broth-dilution microtiter test, Pasteurella hemolytica 22C; type: cell-based; conditions: Pasteurella hemolytica 22C, broth-dilution microtiter
# Excerpt: as §1
# [11] = system: Haemophilus influenzae Holt; assay: MIC, standard agar-dilution assay, Haemophilus influenzae Holt; type: cell-based; conditions: Haemophilus influenzae Holt, ampicillin-sensitive strain
# [12] = system: Staphylococcus aureus S13E; assay: MIC, standard agar-dilution assay, Staphylococcus aureus S13E; type: cell-based
# Pasteurella multocida [13] = assay: Subcutaneous treatment of Pasteurella multocida-infected chicks; type: in vivo, one-day-old chicks; conditions: 30 mg/kg × 2, 1 and 4 hours post-challenge
# Procedure: (§2) Many of the C-20 modified derivatives of this invention have also shown in vivo antibacterial activity against infections induced by gram-negative bacteria. Tables XII and XIII summarize the results of tests in which illustrative compounds were evaluated against Pasteurella infection in one-day-old chicks. The compounds were administered parenterally or orally after challenge of the chicks with Pasteurella multocida (0.1 ml of a 10^-4 dilution of a twenty-hour tryptose broth culture of an avian P. multocida given subcutaneously). In these tests, unless indicated otherwise, all non-medicated infected chicks died within 24 hours of Pasteurella challenge. In the tests summarized in Table XII the compounds were administered by subcutaneous injection at a dosage of 30 mg/kg, 1 and 4 hours post-challenge of the chicks with P. multocida. In the test summarized in Table XIII the compounds were administered by gavage at 1 and 5 hours post-challenge of the chicks with P. multocida.
# [14] = system: Staphylococcus aureus X400; assay: MIC, standard agar-dilution assay, Staphylococcus aureus X400; type: cell-based
# Mycoplasma hyorhinis = assay: MIC, broth-dilution microtiter test, Mycoplasma hyorhinis; type: cell-based
# Excerpt: as §1
# [15] = system: Streptococcus Group D X66; assay: MIC, standard agar-dilution assay, Streptococcus Group D X66; type: cell-based
# Staphylococcus aureus = assay: MIC, broth-dilution microtiter test, Staphylococcus aureus; type: cell-based
# Excerpt: as §1
# [16] = system: Streptococcus pyogenes C203; assay: In vivo protection of mice experimentally infected with S. pyogenes C203; conditions: for ED50: Streptococcus pyogenes
# Procedure: The C-20 modified derivatives of this invention have shown in vivo antimicrobial activity against experimentally-induced infections in laboratory animals. When two doses of test compound were administered to mice experimentally infected with S. pyogenes C203, the activity observed was measured as an ED50 value [effective dose in mg/kg to protect 50% of the test animals: see Warren Wick, et al., J. Bacteriol. 81, 233-235 (1961)].
# Mycoplasma synoviae = assay: MIC, broth-dilution microtiter test, Mycoplasma synoviae; type: cell-based
# Excerpt: as §1
# Mycoplasma hyopneumoniae = assay: MIC, broth-dilution microtiter test, Mycoplasma hyopneumoniae; type: cell-based
# Excerpt: as §1
# Pasteurella multocida [17] = assay: Oral (gavage) treatment of Pasteurella multocida-infected chicks; type: in vivo, one-day-old chicks
# Procedure: as §2
# [18] = Staphylococcus epidermidis EPI1, agar dilution, read-out: MIC
# [19] = Streptococcus pneumoniae Park I, agar dilution, read-out: MIC
# [20] = Staphylococcus epidermidis, EPI2
# [21] = Streptococcus equinus, Streptococcus bovis 80, broth-dilution microtiter, read-out: MIC
# [22] = Streptococcus Group D X66, agar dilution, read-out: MIC
# [23] = broth-dilution microtiter, read-out: MIC
# [24] = C203, sc, mice, subcutaneous, doses given 1 and 4 hours post-infection, read-out: ED50, Subcutaneous
# [25] = Streptococcus pyogenes C203, agar dilution
# [26] = Mycoplasma synoviae, broth-dilution microtiter
# [27] = Staphylococcus epidermidis EPI1, agar dilution
# [28] = Streptococcus pneumoniae Park I, agar dilution
# [29] = Staphylococcus epidermidis EPI2, agar dilution
# [30] = Staphylococcus aureus X1.1, agar dilution
# [31] = Staphylococcus aureus V41, penicillin-resistant strain, agar dilution
# [32] = Streptococcus Group 9960, agar dilution
# [33] = Streptococcus bovis 80, broth-dilution microtiter
# [34] = Mycoplasma gallisepticum, broth-dilution microtiter
# [35] = Mycoplasma hyopneumoniae, broth-dilution microtiter
# [36] = Staphylococcus aureus S13E, agar dilution
# [37] = Staphylococcus aureus X400, methicillin-resistant strain, agar dilution
# [38] = Mycoplasma hyorhinis, broth-dilution microtiter
# [39] = Staphylococcus aureus X400, methicillin-resistant strain, agar dilution, read-out: MIC
# [40] = C203, mice, oral, doses given 1 and 4 hours post-infection, read-out: ED50, Oral
smiles,measurement,setting,value
"CCC1OC(=O)CC(O)C(C)C(OC2OC(C)C(O)C(N(C)C)C2O)C(CCOC(=O)c2nn(CC)c3cc4c(cc3c2=O)OCO4)CC(C)C(=O)C=CC(C)=CC1COC1OC(C)C(O)C(OC)C1OC (stereo not shown) [Compound 27, 20-DH-20-O-Cinoxacinyldesmycosin]",MIC,"[1]; Streptococcus pyogenes C203, agar dilution, read-out: MIC",0.12 µg/mL
same,MIC,[2]; read-out: MIC,25 µg/mL
same,MIC,[3]; [18],1 µg/mL
same,MIC,[4]; read-out: MIC,32 µg/mL
same,MIC,[5]; read-out: MIC,25 µg/mL
same,MIC,[6]; [19],0.12 µg/mL
same,MIC,[7]; [20],4 µg/mL
same,MIC,"[8]; Staphylococcus aureus X1.1, agar dilution, read-out: MIC",2 µg/mL
same,MIC,"[9]; Staphylococcus aureus, V41",4 µg/mL
same,MIC,Streptococcus Group 9960; GROUP9960,8 µg/mL
same,MIC,Streptococcus bovis 80; [21],0.78 µg/mL
same,MIC,Mycoplasma gallisepticum; Mycoplasmoides gallisepticum,1.56 µg/mL
same,MIC,[10]; read-out: MIC,50 µg/mL
same,MIC,[11]; read-out: MIC,32 µg/mL
same,MIC,"[12]; Staphylococcus aureus, S13E",4 µg/mL
same,Number of Deaths/Number Treated,Pasteurella multocida [13],6/10
same,MIC,"[14]; Staphylococcus aureus, X400",8 µg/mL
same,MIC,"Mycoplasma hyorhinis; Mycoplasma hyorhinis, broth-dilution microtiter, read-out: MIC",6.25 µg/mL
same,MIC,[15]; [22],4 µg/mL
same,MIC,Staphylococcus aureus; [23],3.12 µg/mL
same,ED50,"[16]; C203, po, read-out: ED50, Oral",> 100 mg/kg
same,ED50,[16]; [24],< 1.5 mg/kg
"CCC1OC(=O)CC(O)C(C)C(OC2OC(C)C(O)C(N(C)C)C2O)C(CCOc2cccnc2)CC(C)C(=O)C=CC(C)=CC1COC1OC(C)C(O)C(OC)C1OC (stereo not shown) [Compound 49, 20-DH-20-O-(Pyridin-3-yl)desmycosin]",MIC,[1]; [25],2 µg/mL
same,MIC,Mycoplasma synoviae; [26],3.12 µg/mL
same,MIC,[2],25 µg/mL
same,MIC,[3]; [27],0.5 µg/mL
same,MIC,[4]; agar dilution,16 µg/mL
same,MIC,[5],25 µg/mL
same,MIC,[6]; [28],2 µg/mL
same,MIC,[7]; [29],0.25 µg/mL
same,MIC,[8]; [30],0.5 µg/mL
same,MIC,[9]; [31],0.5 µg/mL
same,MIC,Streptococcus Group 9960; [32],16 µg/mL
same,MIC,Streptococcus bovis 80; [33],25 µg/mL
same,MIC,Mycoplasma gallisepticum; [34],0.78 µg/mL
same,MIC,[10],25 µg/mL
same,MIC,[11]; agar dilution,16 µg/mL
same,MIC,Mycoplasma hyopneumoniae; [35],25 µg/mL
same,MIC,[12]; [36],0.5 µg/mL
same,Number of Deaths/Number Treated,Pasteurella multocida [13],9/10
same,MIC,[14]; [37],0.5 µg/mL
same,MIC,Mycoplasma hyorhinis; [38],50 µg/mL
same,MIC,"[15]; Streptococcus Group D X66, agar dilution",16 µg/mL
same,MIC,Staphylococcus aureus; broth-dilution microtiter,1.56 µg/mL
"CCC1OC(=O)CC(O)C(C)C(OC2OC(C)C(O)C(N(C)C)C2O)C(CCN2C(=O)c3ccccc3C2=O)CC(C)C(=O)C=CC(C)=CC1COC1OC(C)C(O)C(OC)C1OC (stereo not shown) [Compound 43, 20-DH-DO-20-N-Phthalimidodesmycosin]",MIC,[1]; [25],0.25 µg/mL
same,MIC,Mycoplasma synoviae; [26],0.78 µg/mL
same,MIC,[2],12.5 µg/mL
same,MIC,[3]; [27],0.12 µg/mL
same,MIC,[4]; agar dilution,32 µg/mL
same,MIC,[5],25 µg/mL
same,MIC,[6]; [28],2 µg/mL
same,MIC,[7]; [29],0.25 µg/mL
same,MIC,[8]; [30],0.12 µg/mL
same,MIC,[9]; [31],0.12 µg/mL
same,MIC,Streptococcus Group 9960; [32],4 µg/mL
same,MIC,Streptococcus bovis 80; [33],6.25 µg/mL
same,MIC,Mycoplasma gallisepticum; [34],0.78 µg/mL
same,MIC,[10],25 µg/mL
same,MIC,[11]; agar dilution,32 µg/mL
same,MIC,Mycoplasma hyopneumoniae; [35],12.5 µg/mL
same,MIC,[12]; [36],0.25 µg/mL
same,Number of Deaths/Number Treated,Pasteurella multocida [13],10/10
same,MIC,[14]; [37],0.5 µg/mL
same,MIC,Mycoplasma hyorhinis; [38],50 µg/mL
same,MIC,Staphylococcus aureus; broth-dilution microtiter,0.78 µg/mL
same,"ED50, Oral","[16]; mice, oral, doses given 1 and 4 hours post-infection",16 mg/kg × 2
same,"ED50, Subcutaneous","[16]; mice, subcutaneous, doses given 1 and 4 hours post-infection",1.6 mg/kg × 2
"CCC1OC(=O)CC(O)C(C)C(OC2OC(C)C(O)C(N(C)C)C2O)C(CCF)CC(C)C(=O)C=CC(C)=CC1COC1OC(C)C(O)C(OC)C1OC (stereo not shown) [Compound 22, 20-DH-DO-20-Fluorodesmycosin]",MIC,"[1]; Streptococcus pyogenes, C203",0.25 µg/mL
same,MIC,Mycoplasma synoviae; Mycoplasmopsis synoviae,50 µg/mL
same,MIC,[2]; read-out: MIC,25 µg/mL
same,MIC,[3]; [18],0.12 µg/mL
same,MIC,[4]; read-out: MIC,16 µg/mL
same,MIC,[5]; read-out: MIC,25 µg/mL
same,MIC,[6]; Streptococcus pneumoniae,2 µg/mL
same,MIC,"[7]; Staphylococcus epidermidis EPI2, agar dilution, read-out: MIC",0.12 µg/mL
same,MIC,"[8]; Staphylococcus aureus, X1.1",0.25 µg/mL
same,MIC,"[9]; Staphylococcus aureus, V41",0.25 µg/mL
same,MIC,Streptococcus Group 9960; GROUP9960,8 µg/mL
same,MIC,Streptococcus bovis 80; [21],1.56 µg/mL
same,MIC,"Mycoplasma gallisepticum; Mycoplasmoides gallisepticum, Mycoplasma gallisepticum, broth-dilution microtiter, read-out: MIC",12.5 µg/mL
same,MIC,[10]; read-out: MIC,> 50 µg/mL
same,MIC,[11]; read-out: MIC,16 µg/mL
same,MIC,"Mycoplasma hyopneumoniae; Mesomycoplasma hyopneumoniae, Mycoplasma hyopneumoniae, broth-dilution microtiter, read-out: MIC",> 25 µg/mL
same,MIC,"[12]; Staphylococcus aureus, S13E",0.25 µg/mL
same,Number of Deaths/Number tested,Pasteurella multocida [17]; 0.5 g/gal equivalent,6/10
same,Number of Deaths/Number tested,Pasteurella multocida [17]; 1.0 g/gal equivalent,0/10
same,Number of Deaths/Number tested,Pasteurella multocida [17]; 2.0 g/gal equivalent,1/10
same,MIC,[14]; [39],0.5 µg/mL
same,MIC,Mycoplasma hyorhinis; Mycoplasma,50 µg/mL
same,MIC,[15],8 µg/mL
same,MIC,Staphylococcus aureus; [23],3.12 µg/mL
same,ED50,[16]; [24],5 mg/kg
same,ED50,[16]; [40],11 mg/kg
"CCC1OC(=O)CC(O)C(C)C(OC2OC(C)C(O)C(N(C)C)C2O)C(CCOC)CC(C)C(=O)C=CC(C)=CC1COC1OC(C)C(O)C(OC)C1OC (stereo not shown) [Compound 30, 20-DH-20-O-Methyldesmycosin]",MIC,"[1]; Streptococcus pyogenes, C203",0.5 µg/mL
same,MIC,Mycoplasma synoviae; Mycoplasmopsis synoviae,0.39 µg/mL
same,MIC,[2]; read-out: MIC,25 µg/mL
same,MIC,"[3]; Staphylococcus epidermidis, EPI1",0.5 µg/mL
same,MIC,[5]; read-out: MIC,25 µg/mL
same,MIC,[6]; [19],4 µg/mL
same,MIC,[7]; [20],0.5 µg/mL
same,MIC,"[8]; Staphylococcus aureus, X1.1",0.5 µg/mL
same,MIC,"[9]; Staphylococcus aureus, V41",0.5 µg/mL
same,MIC,"Streptococcus Group 9960; GROUP9960, Streptococcus Group 9960, agar dilution, read-out: MIC",16 µg/mL
same,MIC,"Streptococcus bovis 80; Streptococcus equinus, 80",12.5 µg/mL
same,MIC,Mycoplasma gallisepticum; Mycoplasmoides gallisepticum,0.39 µg/mL
same,MIC,[10]; read-out: MIC,25 µg/mL
same,MIC,Mycoplasma hyopneumoniae; Mesomycoplasma hyopneumoniae,12.5 µg/mL
same,MIC,"[12]; Staphylococcus aureus, S13E",0.5 µg/mL
same,Number of Deaths/Number Treated,Pasteurella multocida [13],10/10
same,MIC,[14]; [39],1 µg/mL
same,MIC,Mycoplasma hyorhinis; Mycoplasma,50 µg/mL
same,MIC,[15]; [22],16 µg/mL
same,MIC,Staphylococcus aureus,0.78 µg/mL
same,ED50,[16]; [24],> 6.3 mg/kg
same,ED50,[16]; [40],25 mg/kg
